In US11744818B2, “Application of trans-1,3-dilinolein in the preparation of medicaments for treating gastric cancer, stomachic tonic, health products and foods” (Lanzhou University, priority 2021, dated 2023):

Columns and labels:
[1] = system: human gastric cancer cell line HGC-27; test: Cytotoxicity to HGC-27 cells (MTS, 48 hours); format: cell-based; details: for killing of gastric cancer cells: concentration of 300 μm and more; for killing effect on HGC-27: 0-500 μM, 48 hours
Description: (§1) At 37° C. and 5% CO2, human gastric cancer cell line HGC-27 cells and human gastric mucosal epithelial cell line GES-1 cells (coming from China Center for Type Culture Collection (Wuhan, China)) are respectively cultured in RPMI Medium Modified (Hyclone, SH30809.01) and Dulbecco's Modified Eagle's Medium-high glucose (Sigma, D6429), in which 10% fetal calf serum (Gibco, 10270-106) and 1% penicillin-streptomycin (Gibco, 15140-122) are supplemented.
The cytotoxicity of HGC-27 cells by trans-1,3-dilinolein is determined. 5000 cells are plated in a 96-well plate, and each well is added with 100 μL medium. 12 hours after cell attachment, each well is given 100 μL normal medium that contained different concentrations (0 μM, 50 μM, 100 μM, 200 μM, 300 μM, 400 μM, 500 μM) of trans-1,3-dilinolein and had been preheated, and cultured in incubators under the conditions of 5% CO2, 37° C., normal oxygen and 1% oxygen respectively for 48 hours. The medium in each well is drawn, and serum-free medium is added into each well to formulate 60 μL MTS (Promega) at ⅙ the initial concentration, which are correspondingly incubated in incubators under the conditions of 5% CO2, 37° C., normal oxygen and 1% oxygen for 2 hours. The absorbance at 490 nm is determined with a microplate reader (Thermo Scientific).
(§2) Two-side Student's t-test is conducted by using EXCEL to determine the statistical significance of two groups of measurements. P value<0.05 is considered to be statistically significant. Unless otherwise specified, all data are expressed as mean ±standard deviation.

[2] = system: human gastric mucosal epithelial cell line GES-1; test: Proliferation of GES-1 cells (CCK8, 48 hours); format: cell-based; details: for effect on the proliferation of GES-1: 25 μM to 400 μm, 48 hours
Description: as §1
The cytotoxicity of GES-1 cells by trans-1,3-dilinolein is determined. 10000 cells are plated in a 96-well plate, and each well is added with 100 μL medium. 12 hours after cell attachment, each well is given 100 μL normal medium that contained different concentrations (0 μM, 6.25 μM, 12.5 μM, 25 μM, 50 μM, 100 μM, 200 μM, 400 μM, 800 μM, 1000 μM) of trans-1,3-dilinolein and had been preheated, and cultured in incubators under the conditions of 5% CO2, 37° C., normal oxygen and 1% oxygen respectively for 48 hours. The medium in each well is drawn, and serum-free medium is added into each well to formulate 60 μL CCK8 (ABMole BioScience) at 1/11 the initial concentration, which are correspondingly incubated in incubators under the conditions of 5% CO2, 37° C., normal oxygen and 1% oxygen for 40 minutes. The absorbance at 450 nm is determined with a microplate reader (Thermo Scientific).
as §2

Compound: CCCCC/C=C/C/C=C/CCCCCCCC(=O)OCC(O)COC(=O)CCCCCCC/C=C/C/C=C/CCCCC [trans-1,3-dilinolein, [2-hydroxy-3-[(9E,12E)-octadeca-9,12-dienoyl]oxypropyl](9E,12E)-octadeca-9,12-dienoate]
- killing of gastric cancer cells ([1]; hypoxic conditions compared with normal oxygen): the killing effect is more significant
- killing of gastric cancer cells ([1]; normal oxygen): kills gastric cancer cells significantly
- killing effect on HGC-27 ([1]; hypoxic (1% oxygen) compared with normal oxygen, FIG. 4D): stronger killing effect
- killing effect on HGC-27 ([1]; normal oxygen, FIG. 4C): concentration-dependent killing effect
- proliferation of normal gastric mucosal epithelial cells ([2]; concentration of 300 μm and more): significantly promote the proliferation
- effect on the proliferation of GES-1 ([2]; hypoxic (1% oxygen), FIG. 4B): promotion effects on the proliferation
- effect on the proliferation of GES-1 ([2]; normal oxygen, FIG. 4A): promotion effects on the proliferation
